Measurements published in article PMC12286210, “Immobilization of Pleurotus eryngii Laccase via a Protein–Inorganic Hybrid for Efficient Degradation of Bisphenol A as a Potent Xenobiotic” (Journal of Xenobiotics, 2025).

System: T1, PeLac (Pleurotus eryngii laccase)
T1 construct: gene ery3
Settings: free enzyme, partially purified; ABTS 0.01-2.0 mM; 25 °C; co-substrate O2

Work on `CCn1c(=NN=c2sc3cc(S(=O)(=O)O)ccc3n2CC)sc2cc(S(=O)(=O)O)ccc21` [ABTS] yielded a Km of 118 ± 8.9 µM.
